As usually defined, the IC50 is the concentration that inhibits the measured activity by half.

The text below walks through data of article PMC11599716, “Trapping of spermine, Kukoamine A, and polyamine toxin blockers in GluK2 kainate receptor channels” (Nature Communications, 2024).

SMILES strings stand for the structures. Like-named read-outs stand apart in the source and are kept apart here.

Assay [1] has as its target T1, GluK2 kainate receptor (Rattus norvegicus, UniProt P42260, I567V/Y571C).
T1 construct: gene Grik2; full-length rat GluK2 (GenBank CAA77778.1), V567, C571, Q621 (Q/R site unedited); LBD-TMD modelled (S429-R874); homotetramer
Put plainly: cryo-EM structures (four BPAM344 molecules per tetramer in all four structures).

Assay [2] concerns the target T2, GluK2 kainate receptor (Rattus norvegicus, UniProt P42260).
T2 construct: gene Grik2; full-length rat GluK2, Q621 (Q/R site unedited), homotetramer
Put plainly: whole-cell patch clamp in HEK293 cells expressing GluK2 (agonist, with ConA treatment). Type of assay: cell-based.

The target in assay [3] is T1, GluK2 kainate receptor. Put plainly: cryo-EM structure ([…] Å, with BPAM344); IC50 from whole-cell patch clamp in HEK293 cells. The class given is cell-based. On the technique in general: In patch-clamp work, channel activity is measured electrically.
Assay [4] has as its target T1, GluK2 kainate receptor. The description is as above. Type of assay: cell-based. The source holds these as a separate data set.
In assay [5] the target is T1, GluK2 kainate receptor. Described as above. Type of assay: cell-based. This is another data set of the same source.
Assay [6] has as its target T1, GluK2 kainate receptor. Described as above. The class given is cell-based. This is another data set of the same source.

T1 sequence (P42260 32-908 I567V/Y571C): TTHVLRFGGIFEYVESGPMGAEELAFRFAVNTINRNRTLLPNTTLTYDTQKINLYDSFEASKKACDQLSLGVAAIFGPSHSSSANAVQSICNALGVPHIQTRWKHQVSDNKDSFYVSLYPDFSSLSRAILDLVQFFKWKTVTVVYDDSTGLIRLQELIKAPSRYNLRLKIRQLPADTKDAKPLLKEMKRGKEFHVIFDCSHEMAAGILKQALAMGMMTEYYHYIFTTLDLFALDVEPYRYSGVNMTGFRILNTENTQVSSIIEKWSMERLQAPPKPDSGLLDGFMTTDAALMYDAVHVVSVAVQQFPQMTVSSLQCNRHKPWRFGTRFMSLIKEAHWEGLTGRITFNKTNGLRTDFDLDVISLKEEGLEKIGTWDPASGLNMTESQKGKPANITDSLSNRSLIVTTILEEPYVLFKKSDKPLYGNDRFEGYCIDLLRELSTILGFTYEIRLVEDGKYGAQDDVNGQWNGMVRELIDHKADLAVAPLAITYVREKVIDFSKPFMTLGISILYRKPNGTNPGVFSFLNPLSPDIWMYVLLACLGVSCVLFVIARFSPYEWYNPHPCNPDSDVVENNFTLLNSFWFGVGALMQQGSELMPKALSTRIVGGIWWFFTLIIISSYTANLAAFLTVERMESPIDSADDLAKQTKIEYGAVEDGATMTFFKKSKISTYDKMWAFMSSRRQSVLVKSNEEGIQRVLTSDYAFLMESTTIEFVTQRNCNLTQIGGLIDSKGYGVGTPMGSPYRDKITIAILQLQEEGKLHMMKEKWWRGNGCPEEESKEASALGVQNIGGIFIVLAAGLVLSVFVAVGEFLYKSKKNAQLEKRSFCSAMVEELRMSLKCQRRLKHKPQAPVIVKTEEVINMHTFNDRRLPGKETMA
T2 sequence (P42260 32-908): as the sequence (P42260 32-908 I567V/Y571C) above, with V536I, C540Y counted along it

For `O=S1(=O)NCN(C2CC2)c2ccc(F)cc21` [BPAM, BPAM344], the “cryo-EM structures (four BPAM344 molecules per tetramer in all four structures)” value in assay [1] was “improved map quality, with well-resolved densities for BPAM, carbohydrates, and annular lipids”.

As for `C=C(C)[C@H]1CN[C@H](C(=O)O)[C@H]1CC(=O)O` [KA, kainic acid], the “whole-cell patch clamp in HEK293 cells expressing GluK2 (agonist, with ConA trea)” value in assay [2] is “the agonist kainic acid (KA) elicited large inward currents with a steady-state value of IControl”.

The compound `O=C(CCc1ccc(O)c(O)c1)NCCCNCCCCNCCCNC(=O)CCc1ccc(O)c(O)c1` [KukoA, Kukoamine A] displayed an IC50 in assay [3] of 704 ± 31 µM.

With `NCCCNCCCCNCCC(=O)NCCCCCNC(=O)[C@@H](CC(N)=O)NC(=O)Cc1c[nH]c2ccccc12` [NpTx-8], the IC50 in assay [4] was found to be 0.51 ± 0.01 µM.

Take `CCCC(=O)N[C@H](Cc1ccc(O)cc1)C(=O)NCCCCCCCNCCCCN` [PhTx-74]: the midpoint of inhibition in assay [5], the IC50, lay at 7.53 ± 0.35 µM.

The compound `NCCCNCCCCNCCCN` [SPM, spermine] showed an IC50 in assay [6] of 7770 ± 510 µM.
